We go through 63 compounds from US9204653B2, “5-fluoro pyrimidine derivatives” (DOW AGROSCIENCES LLC, priority 2008, dated 2015).

For this assay, the system named is Mycosphaerella graminicola; Anamorph: Septoria tritici; Bayer Code SEPTTR. Description: Leaf blotch of wheat, foliar fungicide treatment, one day protectant (1DP) or three day curative (3DC). The assay is classed as in vivo, Septoria tritici on wheat plants (variety Yuma). As to conditions: Zymoseptoria tritici, 24 h, % disease control rating, one day protectant.

For orientation: pest or weed control means the degree to which the test organism was suppressed or injured, in per cent. Low readings indicate weak suppression, high ones strong suppression. Regarding `Nc1nc(OCC2CCCCC2)ncc1F` [Compound 846], the pest or weed control at 50 ppm is 0 to 25% and the pest or weed control at 200 ppm was 26 to 50%. `Nc1nc(OCc2c(Cl)cccc2Cl)ncc1F` [Compound 847]: the pest or weed control at 50 ppm was 76 to 100%.

Regarding `Nc1nc(OC2CCCCC2)ncc1F` [Compound 848], the pest or weed control at 50 ppm lay within 0 to 25% and the pest or weed control at 200 ppm fell in the range of 0 to 25%. For `COc1ncc(F)c(N)n1` [Compound 850], the pest or weed control at 50 ppm fell in the range of 0 to 25% and the pest or weed control at 200 ppm was in the range of 51 to 75%.

`Fc1ccc(COc2ncc(F)c(NCc3ccc(Cl)cc3)n2)cc1F` [Compound 851]: the pest or weed control at 50 ppm is 76 to 100% and the pest or weed control at 200 ppm lay in the range of 76 to 100%. In turn, `Fc1ccccc1COc1ncc(F)c(NC2CC2)n1` [Compound 852] came in with a pest or weed control at 50 ppm of 51 to 75% and a pest or weed control at 200 ppm of 76 to 100%.

The compound `CCOc1ncc(F)c(N)n1` [Compound 853] yielded a pest or weed control at 50 ppm of 0 to 25% and a pest or weed control at 200 ppm of 0 to 25%.

`Cc1ccc(COc2ncc(F)c(NCc3ccc4c(c3)OCO4)n2)cc1` [Compound 854] displayed a pest or weed control at 50 ppm of 51 to 75% and a pest or weed control at 200 ppm of 76 to 100%. `Fc1cnc(OCc2ccc(OC(F)(F)F)cc2)nc1NC1CC1` [Compound 855] yielded a pest or weed control at 200 ppm of 76 to 100%. As for `Nc1nc(OCc2ccncc2)ncc1F` [Compound 856], the pest or weed control at 200 ppm was 76 to 100%. For the compound `Fc1cnc(OCc2ccco2)nc1NCc1ccc2c(c1)OCO2` [Compound 859], the pest or weed control at 50 ppm is 76 to 100% and the pest or weed control at 200 ppm fell in the range of 76 to 100%. In turn, `Fc1cnc(OCC(F)(F)F)nc1NCCc1ccccc1` [Compound 861] registered a pest or weed control at 50 ppm of 0 to 25% and a pest or weed control at 200 ppm of 26 to 50%.

`Fc1cnc(OCCc2ccccc2)nc1NCCc1ccccc1` [Compound 862] showed a pest or weed control at 50 ppm of 51 to 75% and a pest or weed control at 200 ppm of 76 to 100%. The like results for `Fc1ccccc1CNc1nc(OCc2ccc(Cl)cc2Cl)ncc1F` [Compound 863] were, in that order, 76 to 100% and 76 to 100%. For `Nc1nc(OCC(F)(F)F)ncc1F` [Compound 864], the pest or weed control at 50 ppm was in the range of 0 to 25% and the pest or weed control at 200 ppm was in the range of 26 to 50%. In the case of `COc1ccccc1COc1ncc(F)c(NCc2ccccc2F)n1` [Compound 865], the pest or weed control at 50 ppm is 26 to 50% and the pest or weed control at 200 ppm is 76 to 100%. As to `Fc1cnc(OCc2cccs2)nc1NC1CC1` [Compound 866], the pest or weed control at 50 ppm lay in the range of 0 to 25% and the pest or weed control at 200 ppm is 76 to 100%. In turn, `Fc1ccc(COc2ncc(F)c(NCc3cccs3)n2)cc1` [Compound 867] registered a pest or weed control at 50 ppm of 76 to 100% and a pest or weed control at 200 ppm of 76 to 100%. `Fc1cnc(OCc2cc(Cl)cc(Cl)c2)nc1NCc1ccc(Cl)cc1` [Compound 868]: the pest or weed control at 50 ppm lay within 51 to 75% and the pest or weed control at 200 ppm fell in the range of 76 to 100%. The compound `COc1ccccc1COc1ncc(F)c(NCc2cccs2)n1` [Compound 869] came in with a pest or weed control at 200 ppm of 76 to 100%. Still for that read-out and setting: under `Fc1cnc(OCc2cc(Cl)cc(Cl)c2)nc1NC1CC1` [Compound 870] stands 76 to 100%. With `Cc1ccc(CNc2nc(OCCc3ccccc3)ncc2F)cc1` [Compound 871], the pest or weed control at 50 ppm lay in the range of 0 to 25% and the pest or weed control at 200 ppm lay within 26 to 50%. On the same counts, the results for `Cc1ccc(CNc2nc(OCC(F)(F)F)ncc2F)cc1` [Compound 872] are 26 to 50% and 51 to 75%. The like results for `Fc1cnc(OCc2ccco2)nc1NCc1ccc(Cl)nc1` [Compound 873] were, in that order, 0 to 25% and 0 to 25%.

The compound `Fc1cnc(OCc2cccs2)nc1NCc1ccc(Cl)nc1` [Compound 874] registered a pest or weed control at 50 ppm of 0 to 25% and a pest or weed control at 200 ppm of 0 to 25%. Compound `Cc1ccc(CNc2nc(OC3CCCCC3)ncc2F)cc1` [Compound 875] had a pest or weed control at 50 ppm of 0 to 25% and a pest or weed control at 200 ppm of 76 to 100%. `Fc1cnc(OCc2c(Cl)cccc2Cl)nc1NC1CC1` [Compound 877] registered a pest or weed control at 200 ppm of 76 to 100%. Compound `Nc1nc(OCc2cccc(Oc3ccccc3)c2)ncc1F` [Compound 878] yielded a pest or weed control at 50 ppm of 76 to 100% and a pest or weed control at 200 ppm of 76 to 100%. Turning to `Fc1cnc(OCc2ccccc2Cl)nc1NCc1ccc(Cl)cc1` [Compound 879], the pest or weed control at 50 ppm lay within 76 to 100% and the pest or weed control at 200 ppm lay in the range of 76 to 100%.

`Fc1cnc(OCCc2ccccc2)nc1NCc1ccc(Cl)nc1` [Compound 880] returned a pest or weed control at 50 ppm of 0 to 25% and a pest or weed control at 200 ppm of 26 to 50%. Turning to `Cc1ccc(COc2ncc(F)c(NC3CC3)n2)cc1` [Compound 881], the pest or weed control at 50 ppm is 76 to 100% and the pest or weed control at 200 ppm is 76 to 100%.

In turn, `Fc1ccc(COc2ncc(F)c(NCc3ccc4c(c3)OCO4)n2)cc1` [Compound 882] had a pest or weed control at 50 ppm of 76 to 100% and a pest or weed control at 200 ppm of 76 to 100%. The compound `Fc1ccccc1CNc1nc(OCc2ccc(Cl)c(Cl)c2)ncc1F` [Compound 883] displayed a pest or weed control at 50 ppm of 76 to 100% and a pest or weed control at 200 ppm of 76 to 100%. In turn, `CCOCCOc1cccc(COc2ncc(F)c(NC(C)=O)n2)c1` [Compound 884] yielded a pest or weed control at 50 ppm of 76 to 100% and a pest or weed control at 200 ppm of 76 to 100%. In turn, `Fc1cnc(OCc2ccc(Cl)cc2)nc1NCC(F)(F)F` [Compound 885] gave a pest or weed control at 50 ppm of 26 to 50% and a pest or weed control at 200 ppm of 51 to 75%. The like results for `Cc1cnc(CNc2nc(OCc3ccc(Cl)cc3)ncc2F)cn1` [Compound 886] were, in that order, 76 to 100% and 76 to 100%.

With `Fc1cnc(OCc2cccc(Cl)c2)nc1NC1CC1` [Compound 887], the pest or weed control at 200 ppm lay in the range of 76 to 100%. As for `Fc1ccccc1CNc1nc(OCc2ccccn2)ncc1F` [Compound 888], the pest or weed control at 50 ppm fell in the range of 0 to 25% and the pest or weed control at 200 ppm fell in the range of 51 to 75%.

In turn, `Fc1ccc(COc2ncc(F)c(NCc3cccs3)n2)cc1F` [Compound 890] yielded a pest or weed control at 200 ppm of 76 to 100%. Turning to `Nc1nc(OCc2ccccn2)ncc1F` [Compound 891], the pest or weed control at 50 ppm fell in the range of 76 to 100% and the pest or weed control at 200 ppm lay in the range of 76 to 100%. Regarding `Cc1ccc(COc2ncc(F)c(NCc3ccc(Cl)cc3)n2)cc1` [Compound 892], the pest or weed control at 50 ppm was 51 to 75% and the pest or weed control at 200 ppm fell in the range of 76 to 100%. Compound `Fc1ccccc1CNc1nc(OCc2ccccc2Cl)ncc1F` [Compound 893] came in with a pest or weed control at 50 ppm of 76 to 100% and a pest or weed control at 200 ppm of 76 to 100%.

With `Fc1cnc(OCc2ccc(C(F)(F)F)cc2)nc1NCc1cccs1` [Compound 896], the pest or weed control at 200 ppm was 76 to 100%.

In turn, `Fc1ccc(COc2ncc(F)c(N3CCOCC3)n2)cc1` [Compound 897] displayed a pest or weed control at 50 ppm of 0 to 25% and a pest or weed control at 200 ppm of 51 to 75%. For the compound `Fc1cnc(OCc2ccco2)nc1NC1CC1` [Compound 898], the pest or weed control at 50 ppm is 0 to 25% and the pest or weed control at 200 ppm was in the range of 0 to 25%.

For the compound `Fc1cnc(OCc2ccco2)nc1NCc1cccs1` [Compound 899], the pest or weed control at 50 ppm lay within 26 to 50% and the pest or weed control at 200 ppm was 76 to 100%. On the same counts, the results for `Cc1cnc(CNc2nc(OCc3ccc(F)cc3)ncc2F)cn1` [Compound 900] are 51 to 75% and 76 to 100%. On the same counts, the results for `Fc1ccc(COc2ncc(F)c(NCc3ccc(Cl)nc3)n2)cc1` [Compound 901] are 51 to 75% and 76 to 100%.

The compound `Fc1cnc(OCc2ccncc2)nc1NCc1cccs1` [Compound 902] returned a pest or weed control at 200 ppm of 76 to 100%. As for `Fc1cnc(OC2CCCCC2)nc1NCc1ccc(Cl)cc1` [Compound 903], the pest or weed control at 50 ppm lay in the range of 0 to 25% and the pest or weed control at 200 ppm was 76 to 100%. Turning to `Fc1cnc(OCCc2ccccc2)nc1NCc1ccc2c(c1)OCO2` [Compound 904], the pest or weed control at 50 ppm fell in the range of 0 to 25% and the pest or weed control at 200 ppm lay within 26 to 50%. `Fc1cnc(OCC(F)(F)F)nc1NCc1ccc(Cl)cc1` [Compound 905] displayed a pest or weed control at 50 ppm of 26 to 50% and a pest or weed control at 200 ppm of 51 to 75%. `COc1ccc(COc2ncc(F)c(NCc3cccs3)n2)cc1` [Compound 906] yielded a pest or weed control at 200 ppm of 76 to 100%. The compound `Fc1ccccc1CNc1nc(OCc2cc(Cl)cc(Cl)c2)ncc1F` [Compound 907] yielded a pest or weed control at 50 ppm of 51 to 75% and a pest or weed control at 200 ppm of 76 to 100%. Consider `Fc1cnc(OCc2ccc(Cl)cc2)nc1NCCc1ccccc1` [Compound 908], for which the pest or weed control at 50 ppm fell in the range of 76 to 100% and the pest or weed control at 200 ppm was in the range of 76 to 100%.

`Fc1cnc(OCc2ccc(Cl)c(Cl)c2)nc1NC1CC1` [Compound 909]: the pest or weed control at 200 ppm fell in the range of 76 to 100%. The same measure, in the same setting: for `Fc1cccc(COc2ncc(F)c(NCc3cccs3)n2)c1` [Compound 910] the value was 76 to 100%.

For the compound `Fc1cnc(OCCc2ccccc2)nc1NCc1ccc(Cl)cc1` [Compound 911], the pest or weed control at 50 ppm was 0 to 25% and the pest or weed control at 200 ppm was 0 to 25%. Compound `Fc1cnc(OCc2cccc(Cl)c2)nc1NCc1cccs1` [Compound 912] showed a pest or weed control at 200 ppm of 76 to 100%.

For `Fc1ccccc1CNc1nc(OCc2ccncc2)ncc1F` [Compound 913], the pest or weed control at 50 ppm was in the range of 76 to 100% and the pest or weed control at 200 ppm was in the range of 76 to 100%. Regarding `Cc1ccc(CNc2nc(OCc3ccco3)ncc2F)cc1` [Compound 914], the pest or weed control at 50 ppm was 0 to 25% and the pest or weed control at 200 ppm fell in the range of 76 to 100%.

In the case of `Fc1cnc(OCC(F)(F)F)nc1NCc1ccc(Cl)nc1` [Compound 915], the pest or weed control at 50 ppm lay within 0 to 25% and the pest or weed control at 200 ppm fell in the range of 0 to 25%. Compound `Cc1ccc(COc2ncc(F)c(NCc3cnc(C)cn3)n2)cc1` [Compound 916] showed a pest or weed control at 50 ppm of 76 to 100% and a pest or weed control at 200 ppm of 76 to 100%.
